For one substance, healing and wound glucose level results are on record in patent US12383607B2, “Topical composition for improved healing of open wounds” (Eleos Pharmaceuticals, Inc., priority 2017, dated 2025).

For this assay, the system named is wound. In words: Patient wound healing study. The class given is in vivo, human. The conditions noted are these: topical application directly in the wound. The source says: Thus, for example, a skin ailment could be treated using a disclosed composition as follows: • 1. Clean the skin ailment with soap and warm water, with either a wash cloth or gauze sponge. Cleaning may be lightly abrasive as the subject tolerates. Alternatively, the skin ailment can be cleaned with gauze, moistened with saline and hibiclens. Again, the cleaning may be lightly abrasive as the subject tolerates. • 2. Rinse the ailment thoroughly with warm water or saline so no soap residue remains. • 3. Apply the topical composition to a Q-Tip applicator and lightly cover the surface of the ailment with the composition. […] If eschar is present, apply the composition to the edge of the eschar and beneath the edge of the eschar. The composition need not be applied to the top of the eschar. • 4. Cover the ailment with dry gauze. Wrap and secure the gauze with Kling, Kerlex roll, or Ace wrap. The wrap should be loosely applied so as to secure the dressing but to not apply pressure to the ailment site. • 5. If there is surrounding dermatitis (redness), allow the area to dry (no wrap need be applied).
3. Summary of Patient Wound Healing Study
A summary of the results of a patient wound healing study are illustrated in Table 2 below. The average blood sugar (BS) change by age and class are shown in FIG. 2A and FIG. 2B, respectively. […]

For the substance insulin, the healing entry is “significantly enhances healing” and the wound glucose level result is listed as “decreases the wound glucose level”.
